The record followed here is paper PMC10019194, “Killing Two Birds with One Stone: Discovery of Dual Inhibitors of Oxygen and Fumarate Respiration in Zoonotic Parasite, Echinococcus multilocularis” (Antimicrobial Agents and Chemotherapy, 2023).

The structures appear in SMILES notation. Where two headings read alike, the source gives them in different places.

Assay [1] concerns the target complex II (succinate:quinone reductase, SQR) (Echinococcus multilocularis, UniProt A0A1Z4EAW8+A0A1Z4EAX0+A0A1Z4EAX1). Nature of the assay: Succinate:quinone reductase (SQR) activity (complex II) in protoscoleces mitochondrial fraction. The assay is classed as biochemical. From the text:
(§1) Cyst tissues containing E. multilocularis (Nemuro strain) protoscoleces isolated from infected hispid cotton rats, Sigmodon hispidus, were used. The tissues were shredded through a metal mesh (0.5 mm diameter). Then, the tissues were repeatedly suspended and washed with physiological saline in a tall beaker to obtain protoscoleces by exploiting the buoyancy difference between protoscoleces and other tissue ([26]). The obtained protoscoleces were homogenized with a motor-driven homogenizer to prepare the mitochondrial fraction. The homogenate was diluted with mitochondrial preparation buffer (210 mM mannitol, 10 mM sucrose, 1 mM disodium EDTA, and 50 mM Tris-HCl [pH 7.5]) supplemented with 10 mM sodium malonate to 5 times the volume of the original protoscolex homogenate, and then centrifuged at 800 × g for 10 min (4°C) to remove cell debris and nuclei. The supernatant was then centrifuged at 8,000 × g for 10 min (4°C) to obtain the mitochondrial pellet. Next, the pellet was resuspended in mitochondrial preparation buffer (without malonate) and centrifuged at 8,000 × g for 10 min (4°C). The enriched mitochondrial fraction was finally suspended in approximately 0.5 to 1.0 mL of mitochondrial preparation buffer without malonate and frozen at −50°C. The mitochondrial fraction from A. suum was prepared essentially as described previously ([27], [28]).
(§2) NADH:quinone reductase activity (complex I), succinate:quinone reductase activity (complex II), and succinate:cytochrome c reductase activity (complexes II to III) were measured using a UV-3000 spectrophotometer (Shimadzu, Kyoto, Japan) as described previously ([4], [6]). Briefly, all enzyme assays using mitochondrial fractions were performed in 0.5- or 1.0-mL reaction mixtures at 25°C. A freeze/thaw process was performed before the assay to ensure that the mitochondrial membrane was permeable to the solutes. The final mitochondrial protein concentration was 50 μg/mL. NADH:quinone reductase activity was measured in 50 mM potassium phosphate buffer (pH 7.4) containing 2 mM potassium cyanide, KCN (Sigma, St. Louis, MO, USA), and 60 μM decylubiquinone (Sigma). The activity assay was started by the addition of 50 μM NADH (Fujifilm-Wako, Tokyo, Japan) and recorded as the rate of NADH consumption as monitored at 340 nm (ε = 6.2 mM^−1 cm^−1). The reagents used in the SQR activity assay were mixed with the reaction buffer containing 50 mM potassium phosphate (pH 7.4) and 0.1% (wt/vol) sucrose monolaurate (DOJINDO, Kumamoto, Japan). SQR activity was determined by monitoring the change in absorbance of quinone at 278 nm (ε = 15 mM^−1 cm^−1) in the presence of 60 μM decylubiquinone, 2 mM KCN, and the inhibitor. The reaction was initiated by the addition of 10 mM disodium succinate to the mixture. NADH:cytochrome c activity (complex I to III) was measured in the reaction buffer (30 mM potassium phosphate, 1 mM MgCl2, pH 7.5) containing 2 mM KCN, 50 μM cytochrome c (Nacalai Tesque, Kyoto, Japan), and the inhibitor. The assay was performed after the addition of 100 mM malonate to block complex II activity. The reaction was started by adding 50 μM NADH to the mixture, and the enzyme activity was determined by monitoring the change in absorbance of cytochrome c at 550 nm (ε = 19 mM^−1 cm^−1). IC50 values of AF and its derivatives against the specific activities of mitochondrial respiratory enzymes in protoscoleces were determined. The IC50 of each compound was determined by calculating approximation lines from three or more points on either side of the IC50 concentration.

The target of assay [2] is succinate-cytochrome c reductase (complexes II to III) (Echinococcus multilocularis, UniProt Q9TE80). Kind of assay: Succinate:cytochrome c reductase activity (complexes II to III). It is filed as biochemical. The conditions noted are these: read-out: IC50 against succinate-cytochrome c reductase. On the procedure:
(§3) NADH:quinone reductase activity (complex I), succinate:quinone reductase activity (complex II), and succinate:cytochrome c reductase activity (complexes II to III) were measured using a UV-3000 spectrophotometer (Shimadzu, Kyoto, Japan) as described previously ([4], [6]). Briefly, all enzyme assays using mitochondrial fractions were performed in 0.5- or 1.0-mL reaction mixtures at 25°C. A freeze/thaw process was performed before the assay to ensure that the mitochondrial membrane was permeable to the solutes. The final mitochondrial protein concentration was 50 μg/mL. NADH:quinone reductase activity was measured in 50 mM potassium phosphate buffer (pH 7.4) containing 2 mM potassium cyanide, KCN (Sigma, St. Louis, MO, USA), and 60 μM decylubiquinone (Sigma). The activity assay was started by the addition of 50 μM NADH (Fujifilm-Wako, Tokyo, Japan) and recorded as the rate of NADH consumption as monitored at 340 nm (ε = 6.2 mM^−1 cm^−1). […] SQR activity was determined by monitoring the change in absorbance of quinone at 278 nm (ε = 15 mM^−1 cm^−1) in the presence of 60 μM decylubiquinone, 2 mM KCN, and the inhibitor. […] NADH:cytochrome c activity (complex I to III) was measured in the reaction buffer (30 mM potassium phosphate, 1 mM MgCl2, pH 7.5) containing 2 mM KCN, 50 μM cytochrome c (Nacalai Tesque, Kyoto, Japan), and the inhibitor. […]

In assay [3] the target is complex I (NADH:quinone reductase) (Echinococcus multilocularis, UniProt A0A068Y553+A0A068Y9L9+Q9TE76). Nature of the assay: NADH:quinone reductase activity (complex I) in protoscoleces mitochondrial fraction. The conditions noted are these: E. multilocularis protoscoleces mitochondria; read-out: IC50 NADH:decyl rhodoquinone reductase (complex I). It is filed as biochemical.
Source text: as §1
as §2, with “Louis, MO, USA), and 60 μM decylubiquinone (Sigma).” left out, “SQR activity was determined by monitoring the change in absorbance of quinone at 278 nm (ε = 15 mM^−1 cm^−1) in the presence of 60 μM decylubiquinone, 2 mM KCN, and the inhibitor.” left out

The target of assay [4] is complex I and III (NADH:cytochrome c reductase) (Echinococcus multilocularis, UniProt Q9TE80). Nature of the assay: NADH:cytochrome c reductase activity (complex I to III) in protoscoleces mitochondrial fraction. The assay is classed as biochemical. The following applies: for IC50: E. multilocularis protoscoleces mitochondria, mean ± SEM, Table 1, read-out: IC50 NADH:cytochrome c reductase (complex I and III).
Sequence of complex I and III (NADH:cytochrome c reductase) (Q9TE80 entry or part of it): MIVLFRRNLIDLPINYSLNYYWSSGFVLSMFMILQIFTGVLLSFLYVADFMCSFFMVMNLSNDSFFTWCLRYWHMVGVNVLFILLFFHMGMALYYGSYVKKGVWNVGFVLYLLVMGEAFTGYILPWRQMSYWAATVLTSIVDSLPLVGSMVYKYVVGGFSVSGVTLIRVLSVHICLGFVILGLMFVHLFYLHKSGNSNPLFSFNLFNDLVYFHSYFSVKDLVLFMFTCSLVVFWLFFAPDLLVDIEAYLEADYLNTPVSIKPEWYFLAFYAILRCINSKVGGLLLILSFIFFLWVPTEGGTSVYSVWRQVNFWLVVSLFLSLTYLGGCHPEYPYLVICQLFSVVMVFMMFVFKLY
Sequence of complex I and III (NADH:cytochrome c reductase) (Q9GP40 whole entry, further chain): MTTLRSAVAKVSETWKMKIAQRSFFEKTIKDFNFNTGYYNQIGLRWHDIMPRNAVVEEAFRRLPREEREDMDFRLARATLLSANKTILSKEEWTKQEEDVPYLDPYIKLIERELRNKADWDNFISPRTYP
Sequence of complex I and III (NADH:cytochrome c reductase) (Q9TE76 entry or part of it, further chain): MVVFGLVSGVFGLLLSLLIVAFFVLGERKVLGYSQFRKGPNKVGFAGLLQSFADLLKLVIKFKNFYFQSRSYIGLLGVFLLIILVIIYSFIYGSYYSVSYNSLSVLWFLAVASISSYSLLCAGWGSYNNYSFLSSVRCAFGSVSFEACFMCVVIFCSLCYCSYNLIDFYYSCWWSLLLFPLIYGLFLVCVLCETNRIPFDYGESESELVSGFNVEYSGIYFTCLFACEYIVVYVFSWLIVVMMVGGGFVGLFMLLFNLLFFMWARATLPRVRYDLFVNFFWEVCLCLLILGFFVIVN
Source text: as §1, §2

Assay [5] concerns E. multilocularis protoscoleces. Kind of assay: Ex vivo culture assay of live protoscoleces, viability by trypan blue exclusion. It is filed as cell-based, Echinococcus multilocularis. The conditions noted are these: 50 μM; for antiparasitic effect on protoscoleces in culture assay: both anaerobic and aerobic conditions. On the procedure: FIG 5 Viability of E. multilocularis protoscoleces in ex vivo culture assay. The E. multilocularis protoscoleces were treated with ascofuranone (AF) and its derivatives in culture under aerobic and anaerobic conditions (O2 <0.3%). Each compound was added to the culture medium at a final concentration of 50 μM. The control group was supplemented with 0.5% (vol/vol) dimethyl sulfoxide (DMSO). Atovaquone (ATV) was used as positive control and to ensure anaerobic conditions in the culture. The viability of protoscoleces was evaluated by their ability to exclude trypan blue. The data are presented as the mean ± standard deviation (n = 3).
The obtained protoscoleces were cultured in Connaught Medical Research Laboratories 1066 medium (Gibco, Grand Island, NY, USA) containing 0.5% (wt/vol) yeast extract (Difco Laboratories, Detroit, MI, USA), 2 mM L-glutamine (Gibco), 23 mM 4-(2-hydroxyethyl)-1-piperazineethanesulfonic acid, 0.5% (wt/vol) D (+)-glucose, 0.4 mM sodium taurocholate (Wako Pure Chemical Industries, Osaka, Japan), 57 mM sodium hydrogen carbonate, and 100 U/mL penicillin-streptomycin (Gibco). The protoscoleces were observed daily for seven consecutive days, and half of the medium was replaced on day 3. For anaerobic cultures, six-well plates were sealed in plastic containers with oxygen-detecting agents and oxygen scavengers (Aneromeito, Nissui Pharmaceutical, Tokyo, Japan) to keep the oxygen concentration below 0.3% at 37°C. The protoscoleces were treated with AF and its derivatives at a final concentration of 50 μM in the culture medium, and the duration of parasite elimination was investigated. The control group was supplemented with 0.5% (vol/vol) dimethyl sulfoxide (DMSO), and all conditions were assayed in triplicate. We used ATV in a culture assay as positive control and to ensure anaerobic conditions in the culture ([4], [5]). […] The viability of protoscoleces was determined after microscopic observation of more than 170 protoscoleces per well using the trypan blue exclusion test, as described previously ([4], [6], [33]).

Assay [6] concerns the target T1, A. suum complex II (Ascaris suum, UniProt O44074+P92506+P92507).
T1 construct: from tissue; host or cells: A. suum mitochondrial fraction
Kind of assay: Complex II activity of A. suum mitochondrial fraction. It is filed as biochemical.
Source text: as §1, with “Next, the pellet was resuspended in mitochondrial preparation buffer (without malonate) and centrifuged at 8,000 × g for 10 min (4°C). The enriched mitochondrial fraction was finally suspended in approximately 0.5 to 1.0 mL of mitochondrial preparation buffer without malonate and frozen at −50°C. The mitochondrial fraction from A. suum was prepared essentially as described previously ([27], [28]).” left out
as §3, with “Briefly, all enzyme assays using mitochondrial fractions were performed in 0.5- or 1.0-mL reaction mixtures at 25°C. A freeze/thaw process was performed before the assay to ensure that the mitochondrial membrane was permeable to the solutes. The final mitochondrial protein concentration was 50 μg/mL.” left out

The mark [7] stands for this setting: IC50 against E. multilocularis complex II (SQR), figure legends, supplement.
[8] abbreviates: IC50 Succinate:quinone reductase (SQR) (complex II), E. multilocularis protoscoleces mitochondria, mean ± SEM, Table 1.

Sequence of complex II (succinate:quinone reductase, SQR) (A0A1Z4EAV8 entry or part of it): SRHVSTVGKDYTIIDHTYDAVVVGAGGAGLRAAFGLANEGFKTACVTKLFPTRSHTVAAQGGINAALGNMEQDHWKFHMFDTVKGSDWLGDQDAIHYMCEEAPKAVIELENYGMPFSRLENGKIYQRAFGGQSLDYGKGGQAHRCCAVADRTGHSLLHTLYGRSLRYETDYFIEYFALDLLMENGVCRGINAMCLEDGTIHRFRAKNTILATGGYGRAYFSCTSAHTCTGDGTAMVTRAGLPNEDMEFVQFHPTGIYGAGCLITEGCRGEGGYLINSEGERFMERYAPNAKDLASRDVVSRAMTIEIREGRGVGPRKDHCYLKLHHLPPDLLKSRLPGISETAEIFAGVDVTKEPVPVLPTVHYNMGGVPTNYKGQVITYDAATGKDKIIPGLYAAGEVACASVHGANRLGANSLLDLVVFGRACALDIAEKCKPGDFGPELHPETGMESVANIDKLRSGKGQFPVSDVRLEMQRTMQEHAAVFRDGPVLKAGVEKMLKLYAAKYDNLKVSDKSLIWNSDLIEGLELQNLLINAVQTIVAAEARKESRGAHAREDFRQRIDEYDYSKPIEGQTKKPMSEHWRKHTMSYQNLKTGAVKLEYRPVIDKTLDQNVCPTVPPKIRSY
Sequence of complex II (succinate:quinone reductase, SQR) (A0A1Z4EAX1 entry or part of it): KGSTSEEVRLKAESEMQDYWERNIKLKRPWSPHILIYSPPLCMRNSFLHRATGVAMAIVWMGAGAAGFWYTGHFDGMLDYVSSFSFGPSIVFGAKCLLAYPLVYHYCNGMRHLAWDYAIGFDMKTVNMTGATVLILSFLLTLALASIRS
Sequence of complex II (succinate:quinone reductase, SQR) (A0A1Z4EAX0 entry or part of it): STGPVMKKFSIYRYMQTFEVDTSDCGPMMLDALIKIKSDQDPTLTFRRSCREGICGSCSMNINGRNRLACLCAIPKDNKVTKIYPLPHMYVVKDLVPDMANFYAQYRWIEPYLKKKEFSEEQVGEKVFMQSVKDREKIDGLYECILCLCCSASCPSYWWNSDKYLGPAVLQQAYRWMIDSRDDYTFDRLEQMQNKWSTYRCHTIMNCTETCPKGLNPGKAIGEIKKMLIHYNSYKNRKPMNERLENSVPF
Sequence of complex II (succinate:quinone reductase, SQR) (A0A1Z4EAW8 entry or part of it): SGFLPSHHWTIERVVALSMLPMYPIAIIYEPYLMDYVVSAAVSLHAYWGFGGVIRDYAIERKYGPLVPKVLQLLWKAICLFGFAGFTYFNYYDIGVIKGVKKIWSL
T1 sequence (O44074 22-282): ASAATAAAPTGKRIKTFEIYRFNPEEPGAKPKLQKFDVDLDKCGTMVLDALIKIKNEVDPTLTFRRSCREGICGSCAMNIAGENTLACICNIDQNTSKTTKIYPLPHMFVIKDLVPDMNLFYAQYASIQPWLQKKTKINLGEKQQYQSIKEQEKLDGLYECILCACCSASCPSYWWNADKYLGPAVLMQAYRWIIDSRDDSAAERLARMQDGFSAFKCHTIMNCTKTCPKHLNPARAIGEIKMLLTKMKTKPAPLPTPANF
T1 sequence (P92506 32-188): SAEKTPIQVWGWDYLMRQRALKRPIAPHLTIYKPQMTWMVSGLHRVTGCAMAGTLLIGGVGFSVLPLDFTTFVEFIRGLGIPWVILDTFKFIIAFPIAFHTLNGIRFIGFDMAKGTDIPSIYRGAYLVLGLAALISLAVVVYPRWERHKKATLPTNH
T1 sequence (P92507 26-156): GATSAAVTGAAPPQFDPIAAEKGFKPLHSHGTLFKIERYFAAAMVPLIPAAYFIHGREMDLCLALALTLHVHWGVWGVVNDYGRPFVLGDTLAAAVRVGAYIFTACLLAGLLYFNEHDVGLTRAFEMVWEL
T1 sequence (Q33862 19-645 partner): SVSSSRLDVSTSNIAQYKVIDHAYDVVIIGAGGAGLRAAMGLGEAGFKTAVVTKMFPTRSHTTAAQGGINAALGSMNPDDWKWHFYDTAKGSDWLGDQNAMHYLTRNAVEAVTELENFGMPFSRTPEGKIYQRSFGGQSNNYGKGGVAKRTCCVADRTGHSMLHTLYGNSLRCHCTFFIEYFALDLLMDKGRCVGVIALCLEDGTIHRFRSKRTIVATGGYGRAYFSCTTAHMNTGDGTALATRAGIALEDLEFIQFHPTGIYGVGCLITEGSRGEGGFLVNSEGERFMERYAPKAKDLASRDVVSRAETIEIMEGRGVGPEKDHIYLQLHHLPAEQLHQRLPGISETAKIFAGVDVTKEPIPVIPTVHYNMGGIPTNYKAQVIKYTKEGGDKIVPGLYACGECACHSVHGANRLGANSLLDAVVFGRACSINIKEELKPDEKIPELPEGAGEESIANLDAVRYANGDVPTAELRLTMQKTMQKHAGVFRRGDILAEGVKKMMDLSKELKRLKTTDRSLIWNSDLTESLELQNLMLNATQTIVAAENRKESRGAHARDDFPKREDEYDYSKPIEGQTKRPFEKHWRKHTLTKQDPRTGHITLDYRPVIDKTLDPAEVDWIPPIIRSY

Turning to `O=C1C(O)=C([C@H]2CC[C@H](c3ccc(Cl)cc3)CC2)C(=O)c2ccccc21` [ATV, Atovaquone, reference compound], the half-inhibitory concentration (IC50) – broadly, the concentration that gives 50% inhibition – in assay [1] (setting [7]) stood at 690 nM; in assay [2], 2 nM.

As for `CC(C)=CCC/C(C)=C/CC/C(C)=C/Cc1c(O)c(Cl)c(C)c(C=O)c1O` [Compound D2], the concentration for half-maximal inhibition (IC50) is above 50000 nM in assay [3]; 309 ± 21 nM in assay [1] (IC50, E. multilocularis SQR inhibition, Table 5, furanone ring-substituted derivatives, mean ± SEM); 309 ± 21 nM in assay [1] (setting [8]); 300 nM in assay [1] (setting [7]); 8 ± 2 nM in assay [4]. For the same compound, in assay [4] (IC50 complex II 0.309 μM vs complex III 0.008 μM), the “selectivity complex III over complex II (aerobic vs anaerobic)” value is 38 fold. Also, the “day of complete elimination of protoscoleces” value was at most 4 days in assay [5] (aerobic culture) and 6 days in assay [5] (anaerobic culture (O2 <0.3%)). In addition, in assay [5], the “antiparasitic effect on protoscoleces in culture assay” value (“antiparasitic effect on protoscoleces” for short) is on record as “strong antiparasitic effect”.

With `CC(=O)c1cc(Cl)c(O)c(C/C=C(\C)CC/C=C(\C)CCC=C(C)C)c1O` [Compound D4], the half-inhibitory concentration (IC50) in assay [3] is above 50000 nM; in assay [1] (setting [8]), 37 ± 8 nM; in assay [4], 109 ± 9 nM. Further, the “elimination of protoscoleces on day 7” value in assay [5] (aerobic culture, day 7) came to 34%. For the same compound, in assay [5] (anaerobic culture (O2 <0.3%), day 7), the “elimination of protoscoleces by day 7” value was determined as 65%. For the same compound, the “antiparasitic effect on protoscoleces” value in assay [5] is reported as “weak”.

Regarding `CC(=O)c1cc(Cl)c(O)c(C/C=C(\C)CCC=C(C)C)c1O` [Compound D5], the IC50 in assay [3] is above 50000 nM; in assay [1] (IC50, inhibition of E. multilocularis SQR, Table 2, substitutions on the benzene group, mean ± SEM), 47 ± 11 nM; in assay [1] (setting [8]), 47 ± 11 nM; in assay [4] it was 221 ± 44 nM; in assay [6], 11000 nM. In assay [6] (ratio of IC50 A. suum / E. multilocularis), the “fold less potent inhibition of A. suum complex II than of E. multilocularis complex II” value is 234 fold. Also, the “day of complete elimination of protoscoleces” value in assay [5] (aerobic culture) is at most 6 days; in assay [5] (anaerobic culture (O2 <0.3%)) it was at most 5 days. In addition, in assay [5], the “antiparasitic effect on protoscoleces” value is reported as “strong antiparasitic effect”.

On to `CC(C)(C)c1ccc(CNC(=O)c2ccccc2C(F)(F)F)cc1` [NN23, reference compound], for which the IC50 in assay [1] (figure legends, supplement, read-out: IC50 against E. multilocularis complex II (SQR)) is above 20000 nM; in assay [6] (A. suum mitochondrial fraction, read-out: IC50 against A. suum complex II), 5 nM.
